These results are taken from patent US20070275086A1, “Use of Increased Molecular-Weight Hirudin as an Anticoagulant in Extracorporeal Kidney Replace Therapy” (Max-Planck-Gesellschaft Zur Forderung Der Wissenschaften E.V, priority 1999, published 2007).

In data set [1] the test system is blood platelets. Conditions: human, in vivo. The source says: Patient one. […] Patient was anticoagulated with 6900 IU heparin.
The objective and subjective findings which point towards an HIT II condition were no longer evident after the changeover to anticoagulation with PEG-hirudin. The blood platelet counts, which had constantly shown values above 400/nl during the last dialyses under heparin, fell during the PEG-hirudin haemodialysis to the range from 320 to 350/nl; a trend towards continued normalisation was clearly demonstrable.
The patient was then transferred to PEG-hirudin.

For data set [2], the system named is HIT II-positive patients. To be noted: human, in vivo.
Description: Patient was anticoagulated with 6900 IU heparin. […] The patient complained during dialysis and also in the dialysis-free intervals of problems relating to blood pressure and in some cases mild states of confusion. […] The average number of blood platelets before and after haemodialysis was between 350 and 400/nl.
The patient was transferred to PEG-hirudin according to the following dosage scheme: first haemodialysis: 0.1 mg/kg as a bolus, second to 10th haemodialysis: 0.05 mg/kg PEG hirudin, 11th haemodialysis and beyond: 0.025 mg/kg. […] The blood level of PEG hirudin fluctuated between 0.4 μg/ml before the start of haemodialysis and 1.0 μg/ml after dialysis. The filling volumes with the Type GFS plus 11 dialysers (GAMBRO) were as follows: under heparin application—the mean value for the last three heparin-anticoagulated dialyses was 87 ml; the filling volume during PEG-hirudin treatment for HD 5-HD 6 was 96 ml.
Creatinine clearance was less than 12 ml/min. The anticoagulant used during haemodialysis was un-fractionated heparin. Additionally, the dialysers (H120, Braun-Melsungen) were “primed” before the start of haemodialysis with 500 units of heparin. The patient received 3000 units of heparin as a bolus and 3000 units of heparin as an infusion during the 3.5 hour haemodialysis. […]
Data set [3] deals with HIT II antibodies.
Description: Patient. […] Patient was anticoagulated with 6900 IU heparin. […] The patient complained during dialysis and also in the dialysis-free intervals of problems relating to blood pressure and in some cases mild states of confusion. […] The average number of blood platelets before and after haemodialysis was between 350 and 400/nl.
Creatinine clearance was less than 12 ml/min. The anticoagulant used during haemodialysis was un-fractionated heparin. Additionally, the dialysers (H120, Braun-Melsungen) were “primed” before the start of haemodialysis with 500 units of heparin. The patient received 3000 units of heparin as a bolus and 3000 units of heparin as an infusion during the 3.5 hour haemodialysis. […] The patient complained of tingling in the extremities, a feeling of restlessness and intermittent state of confusion. Between the dialysis sessions, the patient complained of headaches, malaise and loss of appetite. They stated that the people around them complained that they were irritable and seemed under stress.
This patient had been dialysed for 5 months initially with un-fractionated heparin, then with fractionated heparin (Enoxaparin). Enoxaparin was applied in a dose of 20 mg directly before the start of the dialysis. After an incorrect dialysis (rise in pressure before the dialyser) over the dialysis period of 4.5 h, an additional 10 mg Enoxaparin were applied via an indwelling infusion pump placed before the dialyser (F 50 S, Fresenius). The patient indicated severe shortness of breath, a decline in circulation and blood pressure to base values of 80/30 mmHg shortly after the start of haemodialysis.
Data set [4] is described as follows: Dialyser filling volume and clotting in the extracorporeal circuit at end of haemodialysis. It is filed as in vivo, human. The source says: Following this, the patient was transferred to PEG-hirudin.

Values joined by “and” are separate entries in the source; they are usually repeats but may differ in a detail not shown here. Equal values may be shown once.

Enoxaparin: in data set [1], the “blood platelets during haemodialysis, reduced down to” value stood at 100 nL⁻¹. Further, in data set [2], the “blood pressure base values shortly after the start of haemodialysis” value is 80/30. In data set [3], the “tests for HIT II antibodies (HIPA test and platelet-factor-4 ELISA)” value is “positive”.
For heparin, the “filling volume of dialyser” value in data set [4] (patient one, Type GFS plus 11 dialysers (GAMBRO), specified 100 ml, heparin: mean of last three dialyses, PEG-hirudin: HD 5-HD 6) was 87 mL. In data set [4] (patient two, H120 dialysers, heparin: last two haemodialyses, PEG-hirudin: after the 4th haemodialysis), the “filling volume at the end of haemodialysis” value is 71 mL and 73 mL. In data set [1], the “average number of blood platelets before and after haemodialysis” value is 350 to 400 nL⁻¹; the blood platelet counts result is given as “above 400 /nl”. For the same substance, in data set [2], the “fall in blood pressure at the start of haemodialysis” value turned out to be 35 mmHg. Moreover, in data set [3], the “HIT II-specific diagnosis (HIPA-test)” value is on record as “positive result”; the “tests for HIT-positive antibodies (HIPA and ELISA)” value was “strongly positive”.
